Results from ChEMBL document CHEMBL3608226, “Synthesis and biological evaluation of phaitanthrin congeners as anti-mycobacterial agents” (2015).
In brackets after ≈: the same amount, converted by molar mass.

Test system: Mycobacterium tuberculosis
Assay: Antimycobacterial activity against multi-drug resistant Mycobacterium tuberculosis
Type: functional

SMILES	MIC [µg/mL]
O=C1c2ccccc2-n2c1nc1ccccc1c2=O [TRYPTANTHRIN]	0.5 (≈ 2.01 µM)
NNC(=O)c1ccncc1 [ISONIAZID]	4 (≈ 29.2 µM)
